Test results taken from patent publication US5446060A, “Aminoalkyl thienyl ketone derivatives and their use as peripheral vasodilators” (Laboratoire L. Lafon, priority 1990, dated 1995).
Where a name gives a salt, the structure may show the parent alone. Read-outs that look alike come from different tables or passages of the source.

How the values were obtained:
Solubility in water = assay type: physicochemical; details: for solubility: read-out: solubility in water (concentration)
[1] = Acute toxicity determined orally in mice; details: mouse, in vivo; oral, mice (NMRI)
Protocol: The acute toxicity was determined orally in mice (NMRI).

ATP in fresh blood = experiment: Effects on ATP in fresh blood measured ex vivo by 31P NMR spectroscopy
Protocol: The effects of the compounds on the ATP in fresh blood were measured ex vivo by ^31 p NMR spectroscopy.
The results are given in the table below in the form of percentage changes.

femoral flow rate = experiment: Cardiovascular activity, compounds administered intravenously in anaesthetised dogs (femoral flow rate); assay type: in vivo; details: intravenous; for increase in femoral flow rate: 4 mg/kg; for minimal effective dose: Canis lupus familiaris, read-out: dose at and above which femoral flow rate is significantly increased
Source text: (§1) The activity of the compounds administered intravenously was studied in anaesthetised dogs.

arterial blood pressure = experiment: Cardiovascular activity, compounds administered intravenously in anaesthetised dogs (arterial blood pressure); assay type: in vivo; details: intravenous
Source text: as §1

[2] = system: microcirculation of the chamber of the rabbit's ear; experiment: Activity with respect to the microcirculation of the chamber of the rabbit's ear; assay type: in vivo; details: 1 mg/kg I.V.
Source text: The activity of the compounds administered intravenously with respect to the microcirculation of the chamber of the rabbit's ear was studied.

O=C(CCCN1CCCCC1)c1cccs1 [Example 12, 4-piperidino-1-(2-thienyl)butanone 2,4,6-trimethoxybenzoate]
solubility in water (in words) (Solubility in water): soluble in water on heating

O=C(CCCN1CCOCC1)c1cccs1 [Example 4, 4-morpholino-l-(2-thienyl)butanone hydrochloride]
solubility in water (in words) (Solubility in water): water-soluble

CC1CCCN(CCCC(=O)c2cccs2)C1 (stereo not drawn) [Example 3, 4-(3-methylpiperidino)-1-(2-thienyl)butanone hydrochloride]
LD50 [1]: 207 ± 29 mg/kg | percentage change in αATP (ATP in fresh blood): +54.2% | percentage change in βATP (ATP in fresh blood): +54.6% | percentage change in γATP (ATP in fresh blood): +34.7% | solubility (Solubility in water): 200 mg/mL

COc1cc(OC)c(C(=O)CCCN2CCCC2)c(OC)c1 [buflomedil, reference compound]
increase in femoral flow rate (femoral flow rate): 106% | change in ATP level (ATP in fresh blood): did not reveal any change in ATP level

O=C(CCCN1CCCC1)c1cccs1 [Example 11, 4-pyrrolidino-1-(2-thienyl)butanone 2,4,6-trimethoxybenzoate]
solubility in water (in words) (Solubility in water): soluble in water on heating

O=C(CCCN1CCCC1)c1cccs1 [Example 1, 4-pyrrolidino-l-(2-thienyl)butanone hydrochloride]
LD50 [1]: 121 ± 10 mg/kg | increase in femoral flow rate (femoral flow rate): 170% | minimal effective dose (femoral flow rate): ≥ 1 mg/kg | change in arterial blood pressure (arterial blood pressure; even at 4 mg/kg): no significant change | increase in non-terminal arteriolar diameter [2]: significant and long-lasting increase | percentage change in αATP (ATP in fresh blood): +41.4% | percentage change in βATP (ATP in fresh blood): +31.2% | percentage change in γATP (ATP in fresh blood): +36.7% | solubility (Solubility in water): 200 mg/mL

O=C(CCCN1CCCC(CO)C1)c1cccs1 (stereo not drawn) [Example 5, 4-[3-(hydroxymethyl)piperidino]-1-(2-thienyl) butanone hydrochloride]
solubility in water (in words) (Solubility in water): water-soluble

O=C(CCCN1CCCCCC1)c1ccsc1 [Example 9, 4-hexamethylenimino-1-(3-thienyl)butanone hydrochloride]
solubility in water (in words) (Solubility in water): water-soluble

O=C(CCCN1CCCC1)c1ccsc1 [Example 8, 4-pyrrolidino-1-(3-thienyl)butanone hydrochloride]
solubility in water (in words) (Solubility in water): water-soluble

CC1CCCN(CCCC(=O)c2ccsc2)C1 (stereo not drawn) [Example 10, 4-(3-methylpiperidino)-1-(3thienyl)butanone hydrochloride]
solubility in water (in words) (Solubility in water): water-soluble

O=C(CCCn1ccnc1)c1cccs1 [Example 6, 4-(1-imidazolyl)-1-(2-thienyl)butanone hydrochloride]
solubility in water (in words) (Solubility in water): water-soluble

O=C(CCCN1CCCCC1)c1cccs1 [Example 2, 4-piperidino-l-(2-thienyl)butanone hydrochloride]
LD50 [1]: 235 ± 35 mg/kg | increase in femoral flow rate compared with buflomedil at 4 mg/kg (femoral flow rate; 2 mg/kg): same intensity as buflomedil at a dose of 4 mg/kg | minimal effective dose (femoral flow rate): ≥ 1 mg/kg | duration of effect on femoral flow rate compared with buflomedil (femoral flow rate): longer-lasting than that of buflomedil | change in arterial blood pressure (arterial blood pressure; 2 mg/kg): without modifying arterial blood pressure | solubility in water (in words) (Solubility in water; hydrochloride): water-soluble

O=C(CCCN1CCCCCC1)c1cccs1 [Example 7, 4-hexamethylenimino-1-(2-thienyl)butanone hydrochloride]
LD50 [1]: 131 ± 15 mg/kg | increase in femoral flow rate (in words) (femoral flow rate; 1.14 mg/kg and above): significant and longlasting increase | minimal effective dose (femoral flow rate): ≥ 1.14 mg/kg | increase in femoral flow rate compared with buflomedil at 4 mg/kg (femoral flow rate; dose of 1.14 mg/kg and above): larger than that observed with buflomedil at a dose of 4 mg/kg | increase in non-terminal arteriolar diameter [2]: significant and long-lasting increase | solubility in water (in words) (Solubility in water): watersoluble
